Results as given in PubChem BioAssay (NCI).
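The compound was tested at five concentrations on cells cultured in 96-well plates, with a 48-hour exposure period. TGI marks complete inhibition of growth.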

Experiments:
Assay in all cases: DTP human tumour cell line panel, 48 h
[1] = tested on: KM12 colon
[2] = tested on: MOLT-4 leukemia
[3] = tested on: SNB-75 CNS
[4] = tested on: T-47D breast
[5] = tested on: NCI-H522 lung
[6] = tested on: HCT-116 colon
[7] = tested on: TK-10 renal
[8] = tested on: MDA-MB-435
[9] = tested on: SK-MEL-2 melanoma
[10] = tested on: SN12C renal
[11] = tested on: DU-145 prostate
[12] = tested on: A549 NSCLC
[13] = tested on: PC-3 prostate
[14] = tested on: NCI/ADR-RES ovarian
[15] = tested on: HL-60(TB) leukemia
[16] = tested on: SNB-19 CNS
[17] = tested on: RPMI-8226 leukemia
[18] = tested on: HS 578T breast
[19] = tested on: SF-539 CNS
[20] = tested on: CCRF-CEM leukemia
[21] = tested on: SF-295 CNS
[22] = tested on: EKVX NSCLC
[23] = tested on: RXF 393 renal
[24] = tested on: U251 CNS
[25] = tested on: HT29 colon
[26] = tested on: BT-549 breast
[27] = tested on: SK-OV-3 ovarian
[28] = tested on: LOX IMVI melanoma
[29] = tested on: HOP-62 NSCLC
[30] = tested on: OVCAR-8 ovarian
[31] = tested on: M14 melanoma
[32] = tested on: ACHN renal
[33] = tested on: SW-620 colon
[34] = tested on: HCT-15 colon
[35] = tested on: MALME-3M melanoma
[36] = tested on: UO-31 renal
[37] = tested on: NCI-H460 lung
[38] = tested on: UACC-257 melanoma
[39] = tested on: SK-MEL-28 melanoma
[40] = tested on: SK-MEL-5 melanoma
[41] = tested on: HCC-2998 colon
[42] = tested on: OVCAR-5 ovarian
[43] = tested on: MDA-MB-231 breast
[44] = tested on: UACC-62 melanoma
[45] = tested on: OVCAR-4 ovarian
[46] = tested on: K-562 leukemia
[47] = tested on: COLO 205 colon
[48] = tested on: MCF7 breast
[49] = tested on: NCI-H23 lung
[50] = tested on: CAKI-1 renal
[51] = tested on: OVCAR-3 ovarian
[52] = tested on: SF-268 CNS
[53] = tested on: MDA-N
[54] = tested on: IGROV1 ovarian
[55] = tested on: A498 renal
[56] = tested on: 786-0 renal
[57] = tested on: NCI-H226 lung
[58] = tested on: HOP-92 NSCLC

With O=C(O)c1cccc2cccc(-c3c4ccc(=O)cc-4oc4cc(O)ccc34)c12 the TGI [1] was > 100 µM, the TGI [2] was > 100 µM and the TGI [3] was > 100 µM. The TGI [4] was > 100 µM, the TGI [5] was > 100 µM and the TGI [6] was > 100 µM. The TGI [7] was > 100 µM, the TGI [8] was > 100 µM and the TGI [9] was > 100 µM. The TGI [10] was > 100 µM, the TGI [11] was > 100 µM and the TGI [12] was > 100 µM. For the same compound, the TGI [13] was > 100 µM, the TGI [14] was > 100 µM and the TGI [15] was > 100 µM. For the same compound, the TGI [16] was > 100 µM, the TGI [17] was > 100 µM and the TGI [18] was > 100 µM. The TGI [19] was > 100 µM, the TGI [20] was > 100 µM and the TGI [21] was > 100 µM. The TGI [22] was > 100 µM, the TGI [23] was > 100 µM and the TGI [24] was > 100 µM. The TGI [25] was > 100 µM, the TGI [26] was > 100 µM and the TGI [27] was > 100 µM. The TGI [28] was > 100 µM, the TGI [29] was 37.2 µM and the TGI [30] was > 100 µM. For the same compound, the TGI [31] was > 100 µM, the TGI [32] was > 100 µM and the TGI [33] was > 100 µM. The TGI [34] was > 100 µM, the TGI [35] was > 100 µM and the TGI [36] was > 100 µM. The TGI [37] was > 100 µM, the TGI [38] was > 100 µM and the TGI [39] was > 100 µM. For the same compound, the TGI [40] was > 100 µM, the TGI [41] was > 100 µM and the TGI [42] was > 100 µM. For the same compound, the TGI [43] was > 100 µM, the TGI [44] was > 100 µM and the TGI [45] was > 100 µM. The TGI [46] was > 100 µM, the TGI [47] was > 100 µM and the TGI [48] was > 100 µM. For the same compound, the TGI [49] was > 100 µM, the TGI [50] was > 100 µM and the TGI [51] was 54.1 µM. The TGI [52] was > 100 µM, the TGI [53] was > 100 µM and the TGI [54] was > 100 µM. For the same compound, the TGI [55] was > 100 µM.

CC(C)(C)C(=O)N(C(=S)OCc1ccccn1)c1ccccc1 gave a TGI [1] of 71.4 µM, a TGI [2] of 62.4 µM and a TGI [4] of 63.5 µM. The TGI [6] was 52.3 µM, the TGI [7] was > 100 µM and the TGI [8] was > 100 µM. The TGI [9] was 70.5 µM, the TGI [10] was > 100 µM and the TGI [11] was > 100 µM. The TGI [56] was > 100 µM, the TGI [13] was > 100 µM and the TGI [14] was 91.8 µM. The TGI [15] was 64.8 µM, the TGI [16] was > 100 µM and the TGI [17] was 58.7 µM. For the same compound, the TGI [18] was > 100 µM, the TGI [19] was 46.3 µM and the TGI [20] was 68 µM. The TGI [22] was 57.7 µM, the TGI [23] was 63.9 µM and the TGI [24] was > 100 µM. The TGI [25] was > 100 µM, the TGI [26] was > 100 µM and the TGI [27] was > 100 µM. The TGI [28] was 51.6 µM, the TGI [29] was 46.8 µM and the TGI [30] was > 100 µM. For the same compound, the TGI [31] was > 100 µM, the TGI [32] was > 100 µM and the TGI [33] was > 100 µM. It also gave a TGI [34] of 85.2 µM, a TGI [35] of 44.6 µM and a TGI [36] of 84.3 µM. The TGI [38] was > 100 µM, the TGI [39] was > 100 µM and the TGI [40] was 46.6 µM. For the same compound, the TGI [42] was > 100 µM, the TGI [43] was > 100 µM and the TGI [44] was > 100 µM. For the same compound, the TGI [46] was > 100 µM, the TGI [47] was 49.6 µM and the TGI [48] was 61.5 µM. For the same compound, the TGI [49] was > 100 µM, the TGI [50] was > 100 µM and the TGI [51] was > 100 µM. For the same compound, the TGI [52] was > 100 µM, the TGI [53] was > 100 µM and the TGI [54] was 54.3 µM. For the same compound, the TGI [57] was > 100 µM and the TGI [55] was > 100 µM.

With C/C(=N\NC1=NCCN1)c1cn(C2=NCCN2)nc1C the TGI [1] was > 100 µM, the TGI [3] was > 100 µM and the TGI [4] was > 100 µM. The TGI [5] was > 100 µM, the TGI [6] was > 100 µM and the TGI [7] was > 100 µM. The TGI [8] was > 100 µM, the TGI [9] was > 100 µM and the TGI [10] was > 100 µM. For the same compound, the TGI [11] was > 100 µM, the TGI [56] was > 100 µM and the TGI [12] was > 100 µM. The TGI [13] was > 100 µM, the TGI [14] was > 100 µM and the TGI [16] was > 100 µM. The TGI [17] was > 100 µM, the TGI [18] was > 100 µM and the TGI [19] was > 100 µM. The TGI [58] was > 100 µM, the TGI [21] was > 100 µM and the TGI [22] was > 100 µM. The TGI [23] was > 100 µM, the TGI [24] was > 100 µM and the TGI [25] was > 100 µM. For the same compound, the TGI [26] was > 100 µM, the TGI [27] was > 100 µM and the TGI [29] was > 100 µM. For the same compound, the TGI [30] was > 100 µM, the TGI [31] was > 100 µM and the TGI [32] was > 100 µM. For the same compound, the TGI [33] was > 100 µM, the TGI [34] was > 100 µM and the TGI [35] was > 100 µM. For the same compound, the TGI [36] was > 100 µM, the TGI [37] was > 100 µM and the TGI [38] was > 100 µM. The TGI [39] was > 100 µM, the TGI [40] was > 100 µM and the TGI [41] was > 100 µM. The TGI [42] was > 100 µM, the TGI [43] was > 100 µM and the TGI [44] was > 100 µM. For the same compound, the TGI [45] was > 100 µM, the TGI [46] was > 100 µM and the TGI [47] was > 100 µM. For the same compound, the TGI [48] was > 100 µM, the TGI [49] was > 100 µM and the TGI [50] was > 100 µM. The TGI [51] was > 100 µM, the TGI [52] was > 100 µM and the TGI [53] was > 100 µM. The TGI [54] was > 100 µM, the TGI [57] was > 100 µM and the TGI [55] was > 100 µM.
